Experimental data taken from article PMC3814616, “BRAF inhibitors suppress apoptosis through off-target inhibition of JNK signaling” (eLife, 2013).

Assays:
[1] = target: T1, ASK2 (MAP3K6) (Homo sapiens, UniProt O95382); assay: Quantitative competitive binding assay (KINOMEscan); settings: for remaining binding at 0.05 µM: read-out: Percent control (50 nM); for remaining binding at 0.2 µM: read-out: Percent control (200 nM); for remaining binding at 1 µM: read-out: Percent control (1000 nM); for remaining binding at 10 µM: read-out: Percent control (10 μM)
T1 construct: purchased KINOMEscan (DiscoveRx), San Diego, CA
T1 sequence (O95382 1-1288): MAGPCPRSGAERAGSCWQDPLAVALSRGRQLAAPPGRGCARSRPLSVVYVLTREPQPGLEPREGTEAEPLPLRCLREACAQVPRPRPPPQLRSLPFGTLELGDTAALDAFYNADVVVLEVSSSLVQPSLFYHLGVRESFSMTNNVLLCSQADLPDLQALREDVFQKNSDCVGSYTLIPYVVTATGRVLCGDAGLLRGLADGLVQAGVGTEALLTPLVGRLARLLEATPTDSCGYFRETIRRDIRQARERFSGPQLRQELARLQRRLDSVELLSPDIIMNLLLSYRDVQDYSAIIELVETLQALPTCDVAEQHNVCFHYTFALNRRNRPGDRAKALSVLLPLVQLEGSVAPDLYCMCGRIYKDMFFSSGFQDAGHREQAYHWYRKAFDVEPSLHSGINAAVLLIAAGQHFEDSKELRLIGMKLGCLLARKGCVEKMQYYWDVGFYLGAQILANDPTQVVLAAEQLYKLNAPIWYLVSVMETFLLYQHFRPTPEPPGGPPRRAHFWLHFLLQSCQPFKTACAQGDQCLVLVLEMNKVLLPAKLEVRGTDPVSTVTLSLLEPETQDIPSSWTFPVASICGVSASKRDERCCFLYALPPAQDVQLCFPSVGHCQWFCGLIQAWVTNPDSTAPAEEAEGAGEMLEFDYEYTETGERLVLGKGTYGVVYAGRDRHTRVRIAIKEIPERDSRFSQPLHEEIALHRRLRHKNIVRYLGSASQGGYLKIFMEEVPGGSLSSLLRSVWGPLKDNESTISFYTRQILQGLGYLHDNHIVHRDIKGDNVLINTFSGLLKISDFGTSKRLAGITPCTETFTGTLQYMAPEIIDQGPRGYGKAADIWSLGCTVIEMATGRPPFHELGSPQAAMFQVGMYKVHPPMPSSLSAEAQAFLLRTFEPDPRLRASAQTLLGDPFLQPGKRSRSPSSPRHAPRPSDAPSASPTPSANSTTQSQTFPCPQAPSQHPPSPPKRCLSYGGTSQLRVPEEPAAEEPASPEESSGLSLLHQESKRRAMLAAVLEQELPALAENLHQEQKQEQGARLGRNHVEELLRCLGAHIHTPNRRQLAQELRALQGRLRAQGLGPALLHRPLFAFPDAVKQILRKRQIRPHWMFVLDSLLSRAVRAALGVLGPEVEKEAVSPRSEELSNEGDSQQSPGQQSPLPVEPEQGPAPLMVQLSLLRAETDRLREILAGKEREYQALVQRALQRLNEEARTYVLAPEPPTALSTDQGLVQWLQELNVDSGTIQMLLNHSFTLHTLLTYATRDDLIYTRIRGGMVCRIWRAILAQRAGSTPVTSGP

[2] = target: T2, DLK (MAP3K12) (Homo sapiens, UniProt Q12852); assay: as above; settings: for remaining binding at 0.05 µM: read-out: Percent control (50 nM); for remaining binding at 0.2 µM: read-out: Percent control (200 nM); for remaining binding at 1 µM: read-out: Percent control (1000 nM); for remaining binding at 10 µM: read-out: Percent control (10 μM)
T2 construct: purchased KINOMEscan (DiscoveRx), San Diego, CA

[3] = target: T3, LZK (MAP3K13) (Homo sapiens, UniProt O43283); assay: as above; settings: for remaining binding at 0.05 µM: read-out: Percent control (50 nM); for remaining binding at 0.2 µM: read-out: Percent control (200 nM); for remaining binding at 1 µM: read-out: Percent control (1000 nM); for remaining binding at 10 µM: read-out: Percent control (10 μM)
T3 construct: purchased KINOMEscan (DiscoveRx), San Diego, CA
T3 sequence (O43283 1-966): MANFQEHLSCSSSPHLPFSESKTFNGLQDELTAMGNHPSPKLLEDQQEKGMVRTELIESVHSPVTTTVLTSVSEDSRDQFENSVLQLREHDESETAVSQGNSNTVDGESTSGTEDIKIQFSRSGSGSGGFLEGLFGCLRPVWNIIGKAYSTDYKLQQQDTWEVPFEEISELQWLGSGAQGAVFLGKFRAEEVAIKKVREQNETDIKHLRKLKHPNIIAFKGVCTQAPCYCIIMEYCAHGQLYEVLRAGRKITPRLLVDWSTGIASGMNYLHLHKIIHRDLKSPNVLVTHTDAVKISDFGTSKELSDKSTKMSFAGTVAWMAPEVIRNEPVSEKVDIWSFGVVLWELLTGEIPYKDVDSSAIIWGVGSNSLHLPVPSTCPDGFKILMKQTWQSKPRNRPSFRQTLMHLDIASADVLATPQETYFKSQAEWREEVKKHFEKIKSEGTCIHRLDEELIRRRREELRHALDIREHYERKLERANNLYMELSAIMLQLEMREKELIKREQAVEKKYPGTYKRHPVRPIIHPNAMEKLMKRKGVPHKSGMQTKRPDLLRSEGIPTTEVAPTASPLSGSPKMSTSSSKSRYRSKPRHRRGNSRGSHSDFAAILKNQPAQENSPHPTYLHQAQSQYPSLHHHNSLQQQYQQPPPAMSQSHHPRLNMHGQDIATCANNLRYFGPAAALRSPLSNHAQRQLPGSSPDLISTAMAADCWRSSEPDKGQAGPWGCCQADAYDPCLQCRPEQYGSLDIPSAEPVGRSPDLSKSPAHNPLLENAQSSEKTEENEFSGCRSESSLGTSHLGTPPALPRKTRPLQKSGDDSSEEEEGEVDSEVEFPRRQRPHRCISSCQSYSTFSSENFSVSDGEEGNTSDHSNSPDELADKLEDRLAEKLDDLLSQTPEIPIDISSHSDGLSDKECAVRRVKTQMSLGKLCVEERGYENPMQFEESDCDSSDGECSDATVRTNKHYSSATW

[4] = target: T4, MAP4K4 (Homo sapiens, UniProt O95819); assay: as above; settings: for remaining binding at 0.05 µM: read-out: Percent control (50 nM); for remaining binding at 0.2 µM: read-out: Percent control (200 nM); for remaining binding at 10 µM: read-out: Percent control (10 μM)
T4 construct: purchased KINOMEscan (DiscoveRx), San Diego, CA

[5] = target: T5, MEK3 (MAP2K3) (Homo sapiens, UniProt P46734); assay: as above; settings: for remaining binding at 0.05 µM: read-out: Percent control (50 nM); for remaining binding at 0.2 µM: read-out: Percent control (200 nM); for remaining binding at 1 µM: read-out: Percent control (1000 nM); for remaining binding at 10 µM: read-out: Percent control (10 μM)
T5 construct: purchased KINOMEscan (DiscoveRx), San Diego, CA

[6] = target: T6, STK39 (Homo sapiens, UniProt Q9UEW8); assay: as above; settings: for remaining binding at 0.05 µM: read-out: Percent control (50 nM); for remaining binding at 0.2 µM: read-out: Percent control (200 nM); for remaining binding at 1 µM: read-out: Percent control (1000 nM); for remaining binding at 10 µM: read-out: Percent control (10 μM)
T6 construct: purchased KINOMEscan (DiscoveRx), San Diego, CA

[7] = target: T7, TNIK (Homo sapiens, UniProt Q9UKE5); assay: as above; settings: for remaining binding at 0.05 µM: read-out: Percent control (50 nM); for remaining binding at 0.2 µM: read-out: Percent control (200 nM); for remaining binding at 1 µM: read-out: Percent control (1000 nM); for remaining binding at 10 µM: read-out: Percent control (10 μM)
T7 construct: purchased KINOMEscan (DiscoveRx), San Diego, CA

[8] = test system: phospho-MKK4 and phospho-MKK7; assay: Western blot, UV-induced phosphorylation of MKK4 and MKK7; settings: cSCC cell lines, HaCaT, NHEK; 1 μM

T7 sequence (Q9UKE5 whole entry): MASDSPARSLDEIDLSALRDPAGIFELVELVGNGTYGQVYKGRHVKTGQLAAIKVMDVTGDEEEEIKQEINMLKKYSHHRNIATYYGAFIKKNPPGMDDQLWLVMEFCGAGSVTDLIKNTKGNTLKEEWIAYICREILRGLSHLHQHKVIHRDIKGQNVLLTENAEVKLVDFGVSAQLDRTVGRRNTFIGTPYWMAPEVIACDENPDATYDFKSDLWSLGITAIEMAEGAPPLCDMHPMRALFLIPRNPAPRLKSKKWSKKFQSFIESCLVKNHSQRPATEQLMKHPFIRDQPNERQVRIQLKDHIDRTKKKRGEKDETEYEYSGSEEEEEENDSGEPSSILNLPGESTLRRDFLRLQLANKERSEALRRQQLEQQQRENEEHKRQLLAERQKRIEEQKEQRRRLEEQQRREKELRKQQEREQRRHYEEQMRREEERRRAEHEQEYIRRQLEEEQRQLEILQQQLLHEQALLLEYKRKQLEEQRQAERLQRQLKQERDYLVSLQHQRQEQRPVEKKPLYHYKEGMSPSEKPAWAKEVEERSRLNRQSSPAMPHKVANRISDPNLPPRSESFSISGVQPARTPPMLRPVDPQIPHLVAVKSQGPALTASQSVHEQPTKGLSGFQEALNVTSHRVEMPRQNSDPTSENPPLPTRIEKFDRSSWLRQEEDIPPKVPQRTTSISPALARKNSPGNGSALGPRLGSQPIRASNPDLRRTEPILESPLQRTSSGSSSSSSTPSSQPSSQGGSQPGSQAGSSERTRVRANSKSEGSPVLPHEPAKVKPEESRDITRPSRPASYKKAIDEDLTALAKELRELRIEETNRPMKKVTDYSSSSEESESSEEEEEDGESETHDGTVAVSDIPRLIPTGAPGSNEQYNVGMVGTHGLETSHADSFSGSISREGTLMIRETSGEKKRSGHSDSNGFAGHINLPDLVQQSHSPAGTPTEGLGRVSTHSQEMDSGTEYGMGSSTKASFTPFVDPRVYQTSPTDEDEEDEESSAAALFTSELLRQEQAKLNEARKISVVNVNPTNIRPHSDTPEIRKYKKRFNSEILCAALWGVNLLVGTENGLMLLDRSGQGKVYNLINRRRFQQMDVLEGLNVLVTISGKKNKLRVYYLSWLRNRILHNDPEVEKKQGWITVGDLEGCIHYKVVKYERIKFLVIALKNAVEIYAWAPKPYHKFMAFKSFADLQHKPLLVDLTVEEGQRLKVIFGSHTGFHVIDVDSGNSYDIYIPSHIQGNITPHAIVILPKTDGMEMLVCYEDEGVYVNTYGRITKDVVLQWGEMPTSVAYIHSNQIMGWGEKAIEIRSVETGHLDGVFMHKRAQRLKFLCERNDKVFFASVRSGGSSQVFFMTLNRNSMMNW
T5 sequence (P46734 whole entry): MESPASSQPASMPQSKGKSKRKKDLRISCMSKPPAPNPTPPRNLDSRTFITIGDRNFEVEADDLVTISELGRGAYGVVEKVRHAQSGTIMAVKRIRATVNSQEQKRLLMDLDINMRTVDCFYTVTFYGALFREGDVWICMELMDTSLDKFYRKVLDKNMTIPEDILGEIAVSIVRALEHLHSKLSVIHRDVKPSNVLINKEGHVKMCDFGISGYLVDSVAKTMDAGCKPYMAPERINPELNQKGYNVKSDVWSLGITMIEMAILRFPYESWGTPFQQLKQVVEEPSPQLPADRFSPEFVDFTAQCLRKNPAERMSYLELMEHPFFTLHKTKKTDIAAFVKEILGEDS
T2 sequence (Q12852 whole entry): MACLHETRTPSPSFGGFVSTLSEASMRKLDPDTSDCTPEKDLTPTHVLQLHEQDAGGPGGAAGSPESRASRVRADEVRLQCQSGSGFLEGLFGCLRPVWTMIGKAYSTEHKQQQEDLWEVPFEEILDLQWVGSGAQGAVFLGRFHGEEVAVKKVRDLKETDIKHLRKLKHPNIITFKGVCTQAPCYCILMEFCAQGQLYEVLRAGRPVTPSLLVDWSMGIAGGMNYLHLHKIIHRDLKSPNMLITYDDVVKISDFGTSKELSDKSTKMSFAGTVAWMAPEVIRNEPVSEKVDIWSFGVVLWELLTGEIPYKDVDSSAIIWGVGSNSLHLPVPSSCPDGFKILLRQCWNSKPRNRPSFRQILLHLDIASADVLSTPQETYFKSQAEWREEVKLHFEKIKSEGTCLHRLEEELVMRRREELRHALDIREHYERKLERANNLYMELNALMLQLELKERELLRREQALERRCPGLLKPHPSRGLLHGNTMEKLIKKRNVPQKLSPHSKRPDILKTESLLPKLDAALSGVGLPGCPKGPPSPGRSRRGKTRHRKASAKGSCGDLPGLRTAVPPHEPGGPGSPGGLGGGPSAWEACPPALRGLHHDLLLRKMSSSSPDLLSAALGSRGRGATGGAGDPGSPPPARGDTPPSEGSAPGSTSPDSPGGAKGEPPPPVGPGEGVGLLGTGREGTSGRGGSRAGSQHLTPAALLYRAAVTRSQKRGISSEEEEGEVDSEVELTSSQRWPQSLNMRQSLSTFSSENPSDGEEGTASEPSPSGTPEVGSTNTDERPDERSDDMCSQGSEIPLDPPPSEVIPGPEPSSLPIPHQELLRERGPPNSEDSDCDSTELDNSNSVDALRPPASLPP
T4 sequence (O95819 whole entry): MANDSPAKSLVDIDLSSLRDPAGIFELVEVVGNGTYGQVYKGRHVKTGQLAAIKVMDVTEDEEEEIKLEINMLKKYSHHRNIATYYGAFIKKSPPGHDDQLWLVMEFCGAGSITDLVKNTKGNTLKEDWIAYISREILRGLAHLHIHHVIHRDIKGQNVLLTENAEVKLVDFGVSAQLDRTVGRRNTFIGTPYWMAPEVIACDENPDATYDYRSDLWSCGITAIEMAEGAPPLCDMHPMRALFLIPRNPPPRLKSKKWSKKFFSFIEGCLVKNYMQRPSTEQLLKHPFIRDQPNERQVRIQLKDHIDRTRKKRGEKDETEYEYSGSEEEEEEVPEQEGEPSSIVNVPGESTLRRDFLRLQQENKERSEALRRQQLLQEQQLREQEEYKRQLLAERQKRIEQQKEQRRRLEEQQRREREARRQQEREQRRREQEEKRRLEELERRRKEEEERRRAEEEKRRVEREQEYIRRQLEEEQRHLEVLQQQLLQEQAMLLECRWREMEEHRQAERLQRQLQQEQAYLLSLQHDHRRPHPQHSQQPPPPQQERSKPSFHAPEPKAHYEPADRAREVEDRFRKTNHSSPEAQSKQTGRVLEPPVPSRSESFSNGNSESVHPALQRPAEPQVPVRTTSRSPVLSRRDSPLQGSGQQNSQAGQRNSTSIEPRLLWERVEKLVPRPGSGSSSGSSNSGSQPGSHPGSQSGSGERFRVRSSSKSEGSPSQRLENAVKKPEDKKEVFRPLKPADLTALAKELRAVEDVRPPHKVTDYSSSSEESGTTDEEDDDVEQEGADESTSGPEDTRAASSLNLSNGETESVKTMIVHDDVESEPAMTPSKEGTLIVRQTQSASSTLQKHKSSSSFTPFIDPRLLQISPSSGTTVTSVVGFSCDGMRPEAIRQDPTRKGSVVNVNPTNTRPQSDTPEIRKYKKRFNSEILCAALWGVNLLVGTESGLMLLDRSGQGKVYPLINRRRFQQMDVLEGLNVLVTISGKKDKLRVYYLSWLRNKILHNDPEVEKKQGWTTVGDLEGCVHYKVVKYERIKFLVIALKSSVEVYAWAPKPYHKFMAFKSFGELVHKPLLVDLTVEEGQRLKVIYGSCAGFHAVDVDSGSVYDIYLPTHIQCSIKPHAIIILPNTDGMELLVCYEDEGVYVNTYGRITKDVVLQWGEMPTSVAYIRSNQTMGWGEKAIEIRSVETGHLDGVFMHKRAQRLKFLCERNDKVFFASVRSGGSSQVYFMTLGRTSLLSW

| SMILES | remaining binding at 0.05 µM [1] [%] | remaining binding at 0.2 µM [1] [%] | remaining binding at 1 µM [1] [%] | remaining binding at 10 µM [1] [%] | remaining binding at 0.05 µM [2] [%] | remaining binding at 0.2 µM [2] [%] | remaining binding at 1 µM [2] [%] | remaining binding at 10 µM [2] [%] | remaining binding at 0.05 µM [3] [%] | remaining binding at 0.2 µM [3] [%] | remaining binding at 1 µM [3] [%] | remaining binding at 10 µM [3] [%] | remaining binding at 0.05 µM [4] [%] | remaining binding at 0.2 µM [4] [%] | remaining binding at 10 µM [4] [%] | remaining binding at 0.05 µM [5] [%] | remaining binding at 0.2 µM [5] [%] | remaining binding at 1 µM [5] [%] | remaining binding at 10 µM [5] [%] | remaining binding at 0.05 µM [6] [%] | also measured |
| --- | --- | --- | --- | --- | --- | --- | --- | --- | --- | --- | --- | --- | --- | --- | --- | --- | --- | --- | --- | --- | --- |
| CCCS(=O)(=O)Nc1ccc(F)c(C(=O)c2c[nH]c3ncc(Cl)cc23)c1F [PLX4720] | 94 | 100 | 100 | 100 | 95 | 98 | 100 | 92 | 94 | 100 | 96 | 75 | 92 | 99 | 46 | 100 | 100 | 100 | 64 | 100 | remaining binding at 1 µM ([4]; read-out: Percent control (1000 nM)): 100%; remaining binding at 0.2 µM [6]: 100%; remaining binding at 1 µM [6]: 100%; remaining binding at 10 µM [6]: 59%; remaining binding at 0.05 µM [7]: 97%; remaining binding at 0.2 µM [7]: 89%; remaining binding at 1 µM [7]: 79%; remaining binding at 10 µM [7]: 24%; UV-induced phosphorylation of MKK4 and MKK7 [8]: inhibited |
| CCCS(=O)(=O)Nc1ccc(F)c(C(=O)c2c[nH]c3ncc(-c4ccc(Cl)cc4)cc23)c1F [vemurafenib] | 94 | 98 | 100 | 74 | 98 | 97 | 66 | 92 | 100 | 99 | 93 | 74 | 96 | 92 | 23 | 100 | 96 | 98 | 54 | 100 | IC50 ([4]; estimated Kd, averaged pointwise estimates, transformed Hill equation, read-out: Calculated estimate of IC50): 2840 nM; remaining binding at 0.2 µM [6]: 100%; remaining binding at 1 µM [6]: 97%; remaining binding at 10 µM [6]: 66%; remaining binding at 0.05 µM [7]: 95%; remaining binding at 0.2 µM [7]: 94%; remaining binding at 1 µM [7]: 66%; remaining binding at 10 µM [7]: 11%; UV-induced phosphorylation of MKK4 and MKK7 [8]: suppressed |
